Data published in patent US20240150368A1, “ULK INHIBITORS AND METHODS OF USE THEREOF” (Deciphera Pharmaceuticals, LLC, priority 2022, published 2024).

Experiments:
ULK1 kinase = target: T1, ULK1 kinase (Homo sapiens, UniProt O75385, E37A/K38A); assay: Biochemical assay for ULK1 (coupled pyruvate kinase/lactate dehydrogenase assay); conditions: 1 mM ATP, 0.1 nM ULK1; read-out: ULK1 (inhibition of biochemical activity), IC50
T1 construct: (residues 1-283; ID NO: 1); purchased Beryllium
T1 sequence (O75385 1-283 E37A/K38A): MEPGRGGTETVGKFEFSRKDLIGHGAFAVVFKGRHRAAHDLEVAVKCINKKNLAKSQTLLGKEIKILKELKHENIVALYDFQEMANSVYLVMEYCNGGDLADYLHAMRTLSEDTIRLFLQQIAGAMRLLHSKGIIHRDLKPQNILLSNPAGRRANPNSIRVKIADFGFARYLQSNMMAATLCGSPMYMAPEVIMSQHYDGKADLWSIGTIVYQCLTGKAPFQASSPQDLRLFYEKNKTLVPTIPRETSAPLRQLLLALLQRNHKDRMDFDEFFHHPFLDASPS
Outline: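 IC50 values were fitted to percent inhibition, normalised with no-compound and known-inhibitor controls, using rates from 2–3 h of a 6 h read at 30 °C. ADP was coupled through pyruvate kinase/lactate dehydrogenase to NADH loss at 340 nm.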

[1] = test system: ULK kinase substrate ATG13 (pS318-ATG13) in A549 (KRAS mutant) cells; assay: pATG13 levels of mutant KRas A549 cells after treatment with ULK inhibitors in combination with trametinib (ELISA); assay type: cell-based, human
Outline: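 A549 cells grown overnight were treated with a test-compound dose response plus trametinib at 250 nM final (or DMSO) overnight at 37° C. Lysates were assayed by total-ATG13 capture and biotinylated pS318-ATG13 detection ELISA (450 nm minus 540 nm background); % phosphorylation versus controls gave IC50 values.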

Compound	IC50 (ULK1 kinase)	IC50 [1]
CC/C(Nc1cnn(C(F)F)c1)=C1/C(=O)Nc2ccc(C(=O)NCC(F)(F)F)cc21 [Example 114]	0.01 to 0.1 µM	0.1 to 0.3 µM
CC/C(Nc1cnn(C2CC2)c1)=C1/C(=O)Nc2ccc(C(=O)NCC(F)(F)F)cc21 [Example 116]	0.01 to 0.1 µM	≤ 0.1 µM
CC/C(Nc1cnn(C2CCC2)c1)=C1/C(=O)Nc2ccc(C(=O)NCC(F)(F)F)cc21 [Example 117]	≤ 0.01 µM	≤ 0.1 µM
CC/C(Nc1cnn(C2COC2)c1)=C1/C(=O)Nc2ccc(C(=O)NCC(F)(F)F)cc21 [Example 118]	≤ 0.01 µM	0.3 to 0.6 µM
CC/C(Nc1cnn(C(C)C)c1)=C1/C(=O)Nc2ccc(C(=O)N[C@H](C)C(F)(F)F)cc21 [Example 119]	≤ 0.01 µM	≤ 0.1 µM
CC/C(Nc1cn(C(C)C)nn1)=C1/C(=O)Nc2ccc(C(=O)NCC(F)(F)F)cc21 [Example 122]	0.01 to 0.1 µM	> 0.6 µM
CC/C(Nc1cnn(C2CCN(C(C)C)CC2)c1)=C1/C(=O)Nc2ccc(C(C)=O)cc21 [Example 123]	0.1 to 0.5 µM	0.1 to 0.3 µM
CC/C(Nc1cccnc1)=C1/C(=O)Nc2ccc(C(=O)NCC(F)(F)F)cc21 [Example 124]	0.1 to 0.5 µM	> 0.6 µM
CC/C(Nc1cnn(C(C)C)c1)=C1/C(=O)Nc2ccc(C(=O)N(C)CC(F)(F)F)cc21 [Example 125]	0.01 to 0.1 µM	0.3 to 0.6 µM
CC/C(Nc1cnn(C(C)C)c1)=C1/C(=O)Nc2ccc(C(=O)NCCOC)cc21 [Example 126]	0.01 to 0.1 µM	0.3 to 0.6 µM
CC/C(Nc1cnn(C(C)C)c1)=C1/C(=O)Nc2ccc(C(=O)NCCC#N)cc21 [Example 127]	0.01 to 0.1 µM	> 0.6 µM
CC/C(Nc1cnn(C(C)C)c1)=C1/C(=O)Nc2ccc(C(=O)NC[C@@H](C)OC)cc21 [Example 128]	0.01 to 0.1 µM	0.3 to 0.6 µM
CC/C(Nc1cnn(C(C)C)c1)=C1/C(=O)Nc2ccc(C(=O)NCC(C)C)cc21 [Example 130]	≤ 0.01 µM	≤ 0.1 µM
CC/C(Nc1cnn(C(C)C)c1)=C1/C(=O)Nc2ccc(C(=O)NCC3CC(F)(F)C3)cc21 [Example 134]	≤ 0.01 µM	≤ 0.1 µM
CC/C(Nc1cnn(C(C)C)c1)=C1/C(=O)Nc2ccc(C(=O)NCC(C)(C)F)cc21 [Example 135]	≤ 0.01 µM	≤ 0.1 µM
CC/C(Nc1cnn(C(C)C)c1)=C1/C(=O)Nc2ccc(C(=O)NCCOC(F)(F)F)cc21 [Example 136]	≤ 0.01 µM	0.1 to 0.3 µM
CC/C(Nc1cnn(C(C)C)c1)=C1/C(=O)Nc2ccc(C(=O)NCC3CCC(C)(C)O3)cc21 (stereo not shown) [Example 137]	≤ 0.01 µM	0.3 to 0.6 µM
CC/C(Nc1cnn(C(C)C)c1)=C1/C(=O)Nc2ccc(C(=O)NCC3CCC4(CCC4)O3)cc21 (stereo not shown) [Example 138]	0.01 to 0.1 µM	> 0.6 µM
CC/C(Nc1cnn(C(C)C)c1)=C1/C(=O)Nc2ccc(C(=O)NCC3(C(F)(F)F)CC3)cc21 [Example 140]	≤ 0.01 µM	≤ 0.1 µM

Compound	IC50 (ULK1 kinase)	IC50 [1]
CC/C(Nc1ccc2nn(C(C)C)cc2c1)=C1/C(=O)Nc2ccc(C(=O)NCC(F)(F)F)cc21 [Example 142]	0.01 to 0.1 µM	0.3 to 0.6 µM
CC/C(Nc1cnn(C2CC(F)(F)C2)c1)=C1/C(=O)Nc2ccc(C(=O)NCC(F)(F)F)cc21 [Example 144]	≤ 0.01 µM	≤ 0.1 µM
CC/C(Nc1ccccn1)=C1/C(=O)Nc2ccc(C(=O)NCC(F)(F)F)cc21 [Example 145]	0.01 to 0.1 µM	0.1 to 0.3 µM
CC/C(Nc1cnn(C(F)F)c1)=C1/C(=O)Nc2ccc(C(=O)NCC(C)C)cc21 [Example 147]	0.01 to 0.1 µM	0.1 to 0.3 µM
CC/C(Nc1cnn(C(C)C)c1)=C1/C(=O)Nc2ccc(C(=O)NCC(C)(C)OC)cc21 [Example 148]	0.01 to 0.1 µM	0.1 to 0.3 µM
CC/C(Nc1cc(C(F)(F)F)ccn1)=C1/C(=O)Nc2ccc(C(=O)NCC(F)(F)F)cc21 [Example 149]	0.01 to 0.1 µM	0.1 to 0.3 µM
CC/C(Nc1cnn(C(C)C)c1)=C1/C(=O)Nc2ccc(C(=O)NCC3(F)CC3)cc21 [Example 152]	≤ 0.01 µM	≤ 0.1 µM
CC/C(Nc1cnn(CC)c1)=C1/C(=O)Nc2ccc(C(=O)NCC3(F)CC3)cc21 [Example 153]	≤ 0.01 µM	≤ 0.1 µM
CC/C(Nc1cnn(C)c1)=C1/C(=O)Nc2ccc(C(=O)NCC3(F)CC3)cc21 [Example 154]	≤ 0.01 µM	≤ 0.1 µM
CC/C(Nc1cnn(C(C)C)c1)=C1/C(=O)Nc2ccc(C(=O)NCC3(C#N)CC3)cc21 [Example 156]	≤ 0.01 µM	≤ 0.1 µM
CC/C(Nc1cnn(CC(C)OC)c1)=C1/C(=O)Nc2ccc(C(=O)NCC(F)(F)F)cc21 (stereo not shown) [Example 157]	0.01 to 0.1 µM	0.1 to 0.3 µM
CC/C(Nc1cnn(CC(C)OC)c1)=C1/C(=O)Nc2ccc(C(=O)NCC(F)(F)F)cc21 (stereo not shown) [Example 158]	0.01 to 0.1 µM	0.1 to 0.3 µM
CC/C(Nc1cnn(C(C)CC)c1)=C1/C(=O)Nc2ccc(C(=O)NCC(F)(F)F)cc21 (stereo not shown) [Example 159]	0.01 to 0.1 µM	0.1 to 0.3 µM
CC/C(Nc1cnn(CC(F)(F)F)c1)=C1/C(=O)Nc2ccc(C(=O)NCC(C)(C)F)cc21 [Example 160]	≤ 0.01 µM	0.1 to 0.3 µM
CC/C(Nc1cnn(CC(F)F)c1)=C1/C(=O)Nc2ccc(C(=O)NCC(C)(C)F)cc21 [Example 161]	≤ 0.01 µM	≤ 0.1 µM
CC/C(Nc1cnn(C(C)C)c1)=C1/C(=O)Nc2ccc(C(=O)NCCC(F)(F)F)cc21 [Example 166]	≤ 0.01 µM	≤ 0.1 µM
CC/C(Nc1cnn(C(C)C)c1)=C1/C(=O)Nc2ccc(C(=O)NCC3(C)CCOC3)cc21 (stereo not shown) [Example 168]	0.01 to 0.1 µM	0.3 to 0.6 µM
CC/C(Nc1cnn(C(F)(F)F)c1)=C1/C(=O)Nc2ccc(C(=O)NCC(C)C)cc21 [Example 169]	0.01 to 0.1 µM	0.1 to 0.3 µM
CC/C(Nc1cnn(C2CCOCC2)c1)=C1/C(=O)Nc2ccc(C(=O)NCC(C)(C)F)cc21 [Example 173]	≤ 0.01 µM	≤ 0.1 µM
